From US6355426B2, “Methods for the characterization and selection of RNA target motifs that bind compounds of pharmaceutical use” (priority 1996, dated 2002)

How the values were obtained:
[1] = system: E. coli strains DH5a and JM109; experiment: Growth of pGEMR / pGEMR294 transformants on plates with varying concentrations of spectinomycin; type: cell-based; details: 37° C.
Procedure: E. coli strains DH5a and JM109 were conventionally transformed with pGP1-2, and were subsequently transformed by pGEMR (control) and pGEMR294 (which contains the 16S sequence) as described above in Example 1D. Transformants were selected on LB agar containing ampicillin (200 ug/mL) and kanamycin ([…]). These transformants were subsequently examined for their ability to grow in the presence of varying concentrations of spectinomycin (5, 10, 15, 20 and 40 ug/mL). Spectinomycin resistant transformants were recovered at 37° C.
By contrast, transformants of pGEMR294 grew in the presence of the drug up to […]. Plasmids isolated from the transformants and used to retransform each strain, confirmed that resistance was indeed plasmid dependent.

[2] = system: E. coli strain DC2; experiment: Selection of spectinomycin-resistant transformants from a random rRNA fragment library; type: cell-based
Description: Random rDNA fragments were generated by restriction endonuclease digestion of the entire rrnB operon encoding all three rDNAs (16S, 23S and 5S) and the spacer regions using a range and combination of one or more enzymes (including either AluI, HaeIII or DpnI or a double digestion with AluI/DpnI or HaeIII/DpnI) in which recognition sites occurred frequently within the target sequence. The enzymes AluI, HaeIII and DpnI release fragments that can be cloned in either orientation in to the SmaI site on pGEMR.
The fragments were ligated into the SmaI site in pGEMR and used to transform the respective strains. The diversity of RNA fragments within the library was determined by in vitro transcription of radiolabeled transcripts using the RIBOMAXÔ system (Promega), resolution by denaturing gel electrophoresis, and autoradiography according to standard procedures [Sambrook et al, cited above]. Briefly described, to establish that the pool of transformants harbored pGEMR encoding a mixed population of rRNA fragments, the plasmids were isolated, linearized with HindIII and transcribed in vitro with T7 RNA polymerase in the presence of ^32PaUTP. The products were resolved by denaturing gel electrophoresis and visualized by autoradiography. The library consisted of a large number of transcripts, varying in size with an average of 200-500 nucleotides in length. […]

[3] = system: 30S subunits and 3' domain 16S rRNA sub-particle; details: 30S subunits and reconstituted 3' domain particle (nucleotides 923-1542 with eight r-proteins); cited from earlier work

CN[C@@H]1[C@H](O)[C@H](NC)[C@H]2O[C@@]3(O)C(=O)C[C@@H](C)O[C@H]3O[C@@H]2[C@H]1O [spectinomycin]
spectinomycin concentration up to which transformants grew ([1]; transformants of pGEMR294 (16S rRNA fragment nucleotides 972-1266, helix 34) with pGP1-2): up to 20 mg/mL
spectinomycin concentration above which transformants did not survive on plates ([1]; transformants of pGEMR (control) with pGP1-2): above 5 mg/mL
spectinomycin concentration up to which resistant transformants developed on plates ([2]; DC2 (pGP1-2) transformed with rRNA fragment library (16S/23S hybrid fragment), after 48 hours incubation at 37° C.): up to 40 ug/mL
level of spectinomycin resistance, transformants expressing 16/23S RNA versus wild type helix 34 fragment ([2]; comparison of transformants expressing 16/23S hybrid RNA with those encoding wild type helix 34 fragment): higher level of spectinomycin resistance
binding affinity to 30S subunit versus 3' domain sub-particle (dependence of protection on drug concentration) [3]: binds with similar affinity to each particle
